# According to patent US9073835B2, “N-acylthiourea and N-acylurea inhibitors of the Hedgehog protein signalling pathway” (Centre National De La Recherche Scientifique, priority 2008, dated 2015):
# Tested on: Hedgehog protein signaling pathway
# Test: Inhibition of SAG-induced alkaline phosphatase activity (differentiation) in C3H10T1/2 cells
# Format: cell-based
# Details: Mus musculus; for inhibition at 10 µM: C3H 10T1/2, 10 μM test compound, percentage of alkaline phosphatase activity induced by SAG; for IC50: C3H 10T1/2, after induction by 0.1 μM SAG
# Protocol: The effect of compounds with formula (I) as claimed in the invention on inhibition of the Hedgehog protein signaling pathway was determined by analysis of differentiation in the pluripotent fibroblast cell line C3H10T1/2 after activation of this pathway in these cells using a synthetic activator: SAG.
# The compounds with formula (I) to be tested were dissolved in dimethylsulfoxide to a concentration of 10 mM, then stored at a temperature of −20° C. until use.
# The pluripotent fibroblast cell line C3H10T1/2 (ATCC) was cultivated under the conditions recommended by the ATCC. These cells were activated using 0.1 μM of SAG, employing the methods described by Chen et al., Proc. Natl. Acad. Sci. USA, 2002, 99, 14071 and Frank-Kamenetsky et al., J. Biol., 2002, 1, 10.
# Activation with SAG provokes differentiation of the cell line and allows them to express alkaline phosphatase. It is then possible to measure the activity of the Hedgehog protein signaling pathway by measuring the alkaline phosphatase activity.
# The C3H10T1/2 cells were plated onto 96-well plates at a density of […], 24 hours before addition of the test compounds in a concentration of 1 nM to 30 μM and in the presence of 0.1 μM of SAG using DMEM supplemented with 10% fetal calf serum as the culture medium. The tests were carried out in quadruplicate. The plates were then incubated for 5-6 days at a temperature of 37° C. in an atmosphere of 5% CO2. The cells were washed in a cold phosphate buffer (“Phosphate Buffer Serum”: PBS) then lysed by sonication at 4° C. in 50 μl of a solution containing 0.9% of NaCl and 0.2% of Triton X-100.
# By way of comparison, the activity of a known inhibitor of the Hedgehog protein signaling pathway, CURIS 61 414, as described, for example, by Frank-Kamenetsky M. et al. (J. Biol., 2002, 1, 10), was tested under the same conditions as those used to test the various compounds with formula (I) as claimed in the invention.
# The alkaline phosphatase activity measurement in the lysates obtained was then carried out using the method described by Pepinsky et al. (J. Biol. Chem., 1998, 273, 14037). After adding 100 μl of reaction buffer (200 mM Tris-HCl; pH 10.5; 0.4 M of 2-amino-2-methylpropanol and 8 mM of MgCl2) and 50 μl of substrate (4 mM of disodium p-nitrophenyl phosphate), the lysates were incubated at 37° C. for 30-60 min, then the optical density was read at a wavelength of 415 nm.
IC50,SMILES,inhibition at 10 µM
0.01 to 1 µM,"COc1cc(C(=O)NC(=S)Nc2ccc(Cl)c(NC(=O)c3ccccc3)c2)cc(OC)c1OC [Compound 34, N-[[[4-chloro-3-(benzoylamino)phenyl]amino]thioxomethyl]-3,4,5-methoxy-benzamide]",> 80%
1 to 3 µM,"COc1cc(C(=O)NC(=S)Nc2cccc(NC(=O)c3ccccc3)c2)cc2c1OCO2 [Compound 21, N-[[[3-(benzoylamino)phenyl]amino]thioxomethyl]-3,4-methylenedioxy-5-methoxy-benzamide]",> 80%
0.01 to 1 µM,"COc1cc(C(=O)NC(=S)Nc2cccc(NC(=O)c3ccc(-c4ccccc4)cc3)c2)cc(OC)c1OC [Compound 5, N-[[[3-(4-phenyl-benzoylamino)phenyl]amino]thioxomethyl]-3,4,5-methoxy-benzamide]",20 to 80%
0.01 to 1 µM,COc1cc(C(=O)NC(=O)Nc2cccc(NC(=O)c3ccc(-c4ccccc4)cc3)c2C)cc(OC)c1OC [Compound 45],> 80%
1 to 3 µM,"COc1cc(OC)cc(C(=O)NC(=S)Nc2cccc(NC(=O)c3ccccc3)c2)c1 [Compound 18, N-[[[3-(benzoylamino)phenyl]amino]thioxomethyl]-3,5-methoxy-benzamide]",> 80%
0.01 to 1 µM,"CCOc1cc(C(=O)NC(=S)Nc2cccc(NC(=O)c3ccccc3)c2)cc(OCC)c1OCC [Compound 23, N-[[[3-(benzoylamino)phenyl]amino]thioxomethyl]-3,4,5-ethoxy-benzamide]",> 80%
1 to 3 µM,"COc1ccccc1C(=O)Nc1cccc(NC(=S)NC(=O)c2cc(OC)c(OC)c(OC)c2)c1 [Compound 4, N-[[[3-(2-methoxy-benzoylamino)phenyl]amino]thioxomethyl]-3,4,5-methoxy-benzamide]",> 80%
0.01 to 1 µM,"CCOc1cc(C(=O)NC(=S)Nc2cccc(NC(=O)c3ccccc3)c2)cc(OC)c1OCC [Compound 20, N-[[[3-(benzoylamino)phenyl]amino]thioxomethyl]-3,4-ethoxy-5-methoxy-benzamide]",> 80%
1 to 3 µM,"COc1cc(C(=O)NC(=S)Nc2cccc(-n3ccc4ccccc43)c2)cc(OC)c1OC [Compound 57, N-(3-(1H-indol-1-yl)phenylcarbamothioyl)-3,4,5-trimethoxybenzamide]",> 80%

# Continued, compound first:
SMILES,IC50,inhibition at 10 µM
"CCOc1cc(C(=O)NC(=O)Nc2cccc(NC(=O)c3ccccc3)c2)cc(OCC)c1OCC [Compound 29, N-[[[3-(benzoylamino)phenyl]amino]oxomethyl]-3,4,5-ethoxy-benzamide]",,20 to 80%
"COc1cc(C(=O)NC(=S)Nc2ccc(Cl)c(C(=O)Nc3ccccc3)c2)cc(OC)c1OC [Compound 25, N-[[[4-chloro-3-(phenylamino)carbonyl]amino]thioxomethyl]-3,4,5-methoxy-benzamide]",,> 80%
"COc1cc(C(=O)NC(=O)Nc2ccc(Cl)c(NC(=O)c3ccc(-c4ccccc4)cc3)c2)cc(OC)c1OC [Compound 37, N-[[[4-Chloro-3-(4-phenyl-benzoylamino)phenyl]amino]oxomethyl]-3,4,5-methoxy-benzamide]",,20 to 80%
"COc1cc(C(=O)NC(=S)Nc2cccc(NC(=O)c3cccs3)c2)cc(OC)c1OC [Compound 15, N-[[[3-(2-thiophenoylamino)phenyl]amino]thioxomethyl]-3,4,5-methoxy-benzamide]",,20 to 80%
"COc1cc(C(=O)NC(=S)Nc2cccc(NC(=O)c3ccc4ccccc4c3)c2)cc(OC)c1OC [Compound 9, N-[[[3-(2-naphthoylamino)phenyl]amino]thioxomethyl]-3,4,5-methoxy-benzamide]",,20 to 80%
COc1cc(C(=O)NC(=S)Nc2cccc(NC(=O)c3ccc(-c4ccccc4)cc3)c2C)cc(OC)c1OC [Compound 46],,5 to 20%
"O=C(NC(=O)c1ccccc1)Nc1cccc(NC(=O)c2ccccc2)c1 [Compound 50, N-[[[-3-(benzoylamino)phenyl]amino]oxomethyl]-benzamide]",,> 80%
